The target in this assay is T1, human GR (Homo sapiens, UniProt P04150).
T1 construct: purchased Indigo Biosciences
T1 sequence (P04150 1-777): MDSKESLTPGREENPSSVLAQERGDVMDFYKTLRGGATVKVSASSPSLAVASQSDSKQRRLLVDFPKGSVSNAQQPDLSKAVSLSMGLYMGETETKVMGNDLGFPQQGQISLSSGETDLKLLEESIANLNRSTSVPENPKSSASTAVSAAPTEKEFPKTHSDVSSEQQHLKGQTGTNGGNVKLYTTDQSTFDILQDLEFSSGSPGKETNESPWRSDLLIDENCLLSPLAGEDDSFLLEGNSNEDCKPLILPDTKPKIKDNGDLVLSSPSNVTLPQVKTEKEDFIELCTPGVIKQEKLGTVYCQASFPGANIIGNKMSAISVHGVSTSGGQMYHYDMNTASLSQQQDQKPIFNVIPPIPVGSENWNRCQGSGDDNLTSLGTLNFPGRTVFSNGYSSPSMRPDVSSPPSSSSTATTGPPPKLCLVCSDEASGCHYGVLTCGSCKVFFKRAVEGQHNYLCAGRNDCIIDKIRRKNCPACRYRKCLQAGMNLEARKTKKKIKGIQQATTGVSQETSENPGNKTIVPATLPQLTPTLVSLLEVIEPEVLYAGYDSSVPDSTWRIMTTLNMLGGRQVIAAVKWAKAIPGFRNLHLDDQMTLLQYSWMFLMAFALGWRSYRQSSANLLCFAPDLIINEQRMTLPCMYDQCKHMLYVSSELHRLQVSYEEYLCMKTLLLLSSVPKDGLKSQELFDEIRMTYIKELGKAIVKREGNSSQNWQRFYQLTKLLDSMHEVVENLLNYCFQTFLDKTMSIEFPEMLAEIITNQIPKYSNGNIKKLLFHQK
Briefly: human GR antagonist assay (Indigo Biosciences). The class given is cell-based. The text has this:
The activity of a compound can be determined using various known methods. For example, GR assays can be used. Such GR assays include binding assays using, for example, cells transfected with the human glucocorticoid receptor (NR3C1). Several cell based model systems that allow sensitive detection and monitoring of steroids or other compounds with GR bioactivity are known. Most cell based GR reporter models use transgenic gene constructs that include a glucocorticoid response element (GRE) that controls reporter gene (e.g., lucifersrase) expression. For example, a human GR Reporter Assay System is commercially available from Indigo Biosciecnes. […] The principle application of such an assay product is to quantify functional activities, either agonist or antagonist, that a compound may exert against the human glucocorticoid receptor.
The activity of certain compounds were tested in a human GR antagonist assay (Indigo Biosciences).

In turn, `CC#C[C@]1(O)CC[C@H]2[C@@H]3CCC4=CC(=O)CCC4=C3[C@@H](c3ccc(N(C)C)cc3)C[C@@]21C` [Mifepristone, reference compound] gave a HillSlope (Table 1) of 0.8706.

For the compound `Cc1ncccc1NC(=O)c1ccc2c(c1)CCC1=C3C[C@H](O)C[C@]3(C)CC[C@]12Cc1ccccc1` [Compound A, (9S,13S,16R)-9-benzyl-16-hydroxy-13-methyl-N-(2-methylpyridin-3-yl)-7,9,11,12,13,15,16,17-octahydro-6H-cyclopenta[α]phenanthrene-3-carboxamide], for the setting “Table 1”, the “IC50 (nM)” value was “No activity”. Besides, the EC50 result (Table A) was “not active”. Further, the IC50 result (text of Example 2) is “not active”.

For the origin of these results see patent publication US20230212215A1, “GLUCOCORTICOID RECEPTOR MODULATORS” (TRUSTEES OF DARTMOUTH COLLEGE, priority 2020, published 2023).
